Measurements: patent US7829572B2 (Pfizer Inc, priority 2006, dated 2010)

These molecules were tested against T1, calcium receptor (CasR) (Homo sapiens, UniProt P41180) (assay: FLIPR Assay for Evaluating the Potency and Selectivity of Test Compounds). Details: HEK 293 cells expressing CasR; 30 minutes pre-incubation; stimulation by 1.7 mM Ca2+; read 42 seconds after stimulation.
T1 construct: expressed in transfected cells; host or cells: HEK 293
T1 sequence (P41180 20-1078): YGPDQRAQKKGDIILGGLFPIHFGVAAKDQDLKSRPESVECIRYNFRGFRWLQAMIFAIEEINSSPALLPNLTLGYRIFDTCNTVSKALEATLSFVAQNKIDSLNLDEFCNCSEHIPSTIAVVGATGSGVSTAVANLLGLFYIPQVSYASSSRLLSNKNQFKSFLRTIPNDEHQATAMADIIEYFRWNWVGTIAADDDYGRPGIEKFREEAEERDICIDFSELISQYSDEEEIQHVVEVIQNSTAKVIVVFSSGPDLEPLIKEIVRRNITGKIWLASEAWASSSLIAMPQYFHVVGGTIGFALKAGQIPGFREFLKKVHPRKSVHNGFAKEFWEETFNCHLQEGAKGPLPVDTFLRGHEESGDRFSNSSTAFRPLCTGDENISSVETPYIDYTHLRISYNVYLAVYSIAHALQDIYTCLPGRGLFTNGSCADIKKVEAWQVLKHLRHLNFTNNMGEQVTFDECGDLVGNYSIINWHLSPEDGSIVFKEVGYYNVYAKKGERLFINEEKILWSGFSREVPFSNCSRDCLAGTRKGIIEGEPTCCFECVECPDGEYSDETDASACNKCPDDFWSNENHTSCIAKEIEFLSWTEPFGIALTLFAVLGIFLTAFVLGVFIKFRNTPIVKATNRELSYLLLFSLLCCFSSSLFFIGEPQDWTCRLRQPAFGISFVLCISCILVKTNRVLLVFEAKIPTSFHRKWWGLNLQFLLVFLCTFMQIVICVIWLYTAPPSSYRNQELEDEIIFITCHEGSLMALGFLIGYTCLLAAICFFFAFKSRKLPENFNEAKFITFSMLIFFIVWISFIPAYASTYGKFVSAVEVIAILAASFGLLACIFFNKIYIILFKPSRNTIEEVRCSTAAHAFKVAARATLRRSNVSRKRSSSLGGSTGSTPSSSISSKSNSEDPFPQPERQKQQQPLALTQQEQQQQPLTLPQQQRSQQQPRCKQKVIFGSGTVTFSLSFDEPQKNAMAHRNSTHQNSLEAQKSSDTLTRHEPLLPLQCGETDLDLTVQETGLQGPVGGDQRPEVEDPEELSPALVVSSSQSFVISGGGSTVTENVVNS
Format: cell-based
Description: FLIPR Assay for Evaluating the Potency and Selectivity of Test Compounds
Human kidney cell (HEK 293) expressing the calcium receptor (CasR) are used to detect antagonists of the receptor using Fluorometric imaging plate reader (FLIPR, Molecular Devices, Sunnyvale Calif.). Receptor activation by extracellular calcium results in the release of calcium from intracellular stores into the cytosol. A fluorescent indicator (Fluo-4) is internalized by the cells from growth media and interacts with calcium released into the cytosol to provide a means of quantifying intracellular Ca^2+ levels and receptor agonism/antagonism. Fluorescence intensity is detected by the FLIPR CCD camera and traced as a function of time. Potential antagonists are identified by their ability to decrease this fluorescent response.
Prior to the addition of test compound cells are washed with a 10 mM HEPES buffer solution. The test compound, for example the compound of Example 1, is added at various doses (from 1 µM to 3 nM) and pre-incubated with cells for 30 minutes followed by stimulation of the CasR by the addition of 1.7 mM Ca^2+. IC50 values are based on the ability of the cells to inhibit the Ca^2+ induced increase in intracellular Ca^2+. Fluorescence signal is read 42 seconds after the stimulation of the CasR by the addition of 1.7 mM Ca^2+.
The following table provides FLIPR IC50 data for the specified Examples. The IC50s are reported as micromolar concentration with n being the number of times the particular compound was assayed.

Row | Structure (SMILES) | IC50 [nM]
1 | CC(C)c1nc2ccnc(C(F)(F)F)c2c(=O)n1CCc1ccccc1 [Example 58, 2-isopropyl-3-phenethyl-5-(trifluoromethyl)pyrido[4,3-d]pyrimidin-4(3H)-one] | 4680
2 | O=c1c2c(C(F)(F)F)nccc2nc(-c2ncccc2C(F)F)n1CCc1ccccc1 [Example 80, 2-(3-(difluoromethyl)pyridin-2-yl)-3-phenethyl-5-(trifluoromethyl)pyrido[4,3-d]pyrimidin-4(3H)-one] | 300
3 | CC(Cc1ccccc1F)n1c(-c2ncccc2O)nc2ccnc(C(F)(F)F)c2c1=O (single isomer, unassigned) [Example 6b, 2-(3-Hydroxy-pyridin-2-yl)-3-(1-methyl-2-(2-fluorophenyl)ethyl)-5-trifluoromethyl-3H-pyrido[4,3-d]pyrimidin-4-one] | 1400
4 | COc1c(F)cccc1CCn1c(-c2ncccc2O)nc2ccnc(C(F)(F)F)c2c1=O [Example 45, 3-(3-fluoro-2-methoxyphenethyl)-2-(3-hydroxypyridin-2-yl)-5-(trifluoromethyl)pyrido[4,3-d]pyrimidin-4(3H)-one] | 1870
5 | C[C@@H](Cc1ccccc1)n1c(-c2ccccc2O)nc2ccnc(C(F)(F)F)c2c1=O [Example 4b, (S)-2-(2-Hydroxy-phenyl)-3-(1-methyl-2-phenyl-ethyl)-5-trifluoromethyl-3H-pyrido[4,3-d]pyrimidin-4-one] | 160
6 | O=c1c2c(C(F)(F)F)nccc2nc(-c2ccccc2C(F)(F)F)n1CCC1CCCCC1 [Example 81, 3-(2-cyclohexylethyl)-5-(trifluoromethyl)-2-(2-(trifluoromethyl)phenyl)pyrido[4,3-d]pyrimidin-] | 7890
7 | Cc1nccc2nc(-c3ccccc3O)n(CCc3ccccc3)c(=O)c12 [Example 26, 2-(2-Hydroxy-phenyl)-5-methyl-3-phenethyl-3H-pyrido[4,3-d]pyrimidi-4-one] | 2990
8 | C[C@H](CC1CCCCC1)n1c(-c2ncccc2O)nc2ccnc(C(F)(F)F)c2c1=O [Example 48a, (R)-3-(1-cyclohexylpropan-2-yl)-2-(3-hydroxypyridin-2-yl)-5-(trifluoromethyl)pyrido[4,3-d]pyrimidin-4(3H)-one] | 160
9 | CC(=O)Nc1cccnc1-c1nc2ccnc(C(F)(F)F)c2c(=O)n1CCc1ccccc1F [Example 52, N-(2-(3-(2-fluorophenethyl)-4-oxo-5-(trifluoromethyl)-3,4-dihydropyrido[4,3-d]pyrimidin-2-yl)pyridin-3-yl)acetamide] | 230
10 | C[C@H](Cc1ccc(F)c(F)c1)n1c(-c2ncccc2O)nc2ccnc(C(F)(F)F)c2c1=O [Example 37a, (R)-3-(1-(3,4-difluorophenyl)propan-2-yl)-2-(3-hydroxypyridin-2-yl) 5-(trifluoromethyl)pyrido[4,3-d]pyrimidin-4(3H)-one] | 8
11 | O=c1c2c(N3CCC3)nccc2nc(-c2ccccc2O)n1CCc1ccccc1 [Example 23, 5-Azetidin-1-yl-2-(2-hydroxy-phenyl)-3-phenethyl-3H-pyrido[4,3-]d-pyrimidin-4-one] | 13700
12 | C[C@H](Cc1ccccc1)n1c(-c2ncccc2O)nc2ccnc(C(F)(F)F)c2c1=O [Example 5, (R)-2-(3-Hydroxy-pyridin-2-yl)-3-(1-methyl-2-phenyl-ethyl)-5-trifluoromethyl-3H-pyrido[4,3-d]pyrimidin-4-one] | 20
13 | Cc1cc2nc(-c3ccccc3O)n(CCc3ccccc3)c(=O)c2c(C(F)(F)F)n1 [Example 10, 2-(2-Hydroxy-phenyl)-7-methyl-3-(phenyl-ethyl)-5-trifluoromethyl-3H-pyrido[4,3-d]pyrimidin-4-one] | 120
14 | C[C@H](Cc1ccccc1)n1c(-c2ncccc2C(F)(F)F)nc2ccnc(C(F)(F)F)c2c1=O [Example 77] | 700
15 | CN(C)c1ccc(-c2nccc3nc(-c4ccccc4O)n(CCc4ccccc4)c(=O)c23)cn1 [Example 27, 5-(6-Dimethylamino-pyridin-3-yl)-2-(2-hydroxy-phenyl)-3-phenethyl-3H-pyrido[4,3-d]pyrimidin-4-one] | 2260
16 | O=c1c2c(OCC(F)(F)F)nccc2nc(-c2ccccc2O)n1CCc1ccccc1 [Example 36, 2-(2-Hydroxy-phenyl)-3-phenethyl-5-(2,2,2-trifluoro-ethoxy)-3H-pyrido[4,3-d]pyrimidin-4-one] | 600
17 | O=c1c2c(C(F)(F)F)nccc2nc(-c2ncccc2O)n1CC1CCOCC1 [Example 67, 2-(3-hydroxypyridin-2-yl)-3-((tetrahydro-2H-pyran-4-yl)methyl)-5-(trifluoromethyl)pyrido[4,3-d]pyrimidin-4(3H)-one] | > 1000
18 | CC(C)CCn1c(-c2ncccc2O)nc2ccnc(C(F)(F)F)c2c1=O [Example 66, 2-(3-hydroxypyridin-2-yl)-3-isopentyl-5-(trifluoromethyl)pyrido[4,3-d]pyrimidin-4(3H)-one] | 36200
19 | O=c1c2c(C(F)(F)F)nccc2nc(-c2ncccc2O)n1CCc1ccccc1 [Example 3, 2-(3-Hydroxy-pyridin-2-yl)-3-phenethyl-5-trifluoromethyl-3H-pyrido[4,3-d]pyrimidin-4-one] | 390
20 | CC(Cc1ccccc1F)n1c(-c2ncccc2O)nc2ccnc(C(F)(F)F)c2c1=O (single isomer, unassigned) [Example 6a, 2-(3-Hydroxy-pyridin-2-yl)-3-(1-methyl-2-(2-fluorophenyl)ethyl)-5-trifluoromethyl-3H-pyrido[4,3-d]pyrimidin-4-one] | 50
21 | CCCOc1nccc2nc(-c3ccccc3O)n(CCc3ccccc3)c(=O)c12 [Example 32, 2-(2-Hydroxy-phenyl)-3-phenethyl-5-propoxy-3H-pyrido[4,3-d]pyrimidin-4-one] | 570
22 | O=c1c2c(N3CCCC3)nccc2nc(-c2ccccc2O)n1CCc1ccccc1 [Example 18, 2-(2-Hydroxy-phenyl)-3-phenethyl-5-pyrrolidin-1-yl-3H-pyrido[4,3-d]pyrimidin-4-one] | 12300
23 | COc1ccccc1CCn1c(-c2ncccc2O)nc2ccnc(C(F)(F)F)c2c1=O [Example 39, 3-(2-methoxyphenethyl)-2-(3-hydroxypyridin-2-yl)-5-(trifluoromethyl)pyrido[4,3-d]pyrimidin-4(3H)-one] | 110
24 | C[C@H](Cc1ccccc1)n1c(-c2ncccc2NC(=O)C(F)(F)F)nc2ccnc(C(F)(F)F)c2c1=O [Example 73, (R)-2,2,2-trifluoro-N-(2-(4-oxo-3-(1-phenylpropan-2-yl)-5-(trifluoromethyl)-3,4-dihydropyrido[4,3-d]pyrimidin-2-VI)pyridin-3-VI)acetamide] | 200
25 | O=c1c2c(C(F)(F)F)nccc2nc(-c2cccc(F)c2O)n1CCc1ccccc1 [Example 2, 2-(3-Fluoro-2-hydroxy-phenyl)-3-phenethyl-5-trifluoromethyl-3H-pyrido[4,3-d]pyrimidin-4-one] | 620
26 | O=c1c2c(C(F)(F)F)nccc2nc(-c2ncccc2O)n1CCc1ccccc1F [Example 12, 3-[2-(2-Fluoro-phenyl)-ethyl-]2-(3-hydroxy-pyridin-2-yl)-5-trifluoromethyl-3H-pyrido[4,3-d]pyrimidin-4-one] | 250
27 | CC(Cc1ccccc1F)n1c(-c2ncccc2O)nc2ccnc(C(F)(F)F)c2c1=O (racemic) [Example 6, (R, S)-2-(3-Hydroxy-pyridin-2-yl)-3-(1-methyl-2-(2-fluorophenyl)ethyl)-5-trifluoromethyl-3H-pyrido[4,3-d]pyrimidin-4-one] | 50
28 | O=c1c2c(C(F)(F)F)nccc2nc(-c2ccccc2O)n1CCc1ccc(F)c(F)c1 [Example 15] | 160
